Reference: patent US20250368682A1, “NOVEL POLYPEPTIDE COMPOSITION FOR INTRACELLULAR TRANSFECTION” (AZOTHBIO INC., priority 2022, published 2025)

How the values were obtained:
Assay type in all cases: cell-based
Jurkat T cells [1] = experiment: pEGFP-N3 plasmid DNA delivery, GFP expression by immunoblotting; conditions: for GFP expression depending on copy number of NLS: 2, 3 or 4 copies of NLS after 10 leucines; for plasmid DNA delivery efficiency depending on leucine length: 10 or 11 leucines with 2×NLS, same experiment as Example 1-1
Experimental: Specific sequences thereof are shown in Table 2 below (Peptides 1 to 10). Each of the above peptides at a concentration of 4 μM was mixed with 2 μg of pEGFP-N3 plasmid for 30 minutes in a CO2 incubator at 37° C. After transfection of the plasmids into Jurkat T cells for 30 minutes, the expression of GFP was analyzed by immunoblotting after 24 hours (FIG. 1).
Peptides containing 10 or 11 leucine amino acids and 2×NLS linked thereto were prepared (Peptides 1 and 11), and based on these peptides, the effect of the number of leucine amino acids on the transmission level was further determined. Each of the above peptides was subjected to the same experiment as in Example 1-1, and then the expression of GFP was analyzed by immunoblotting (FIG. 2).
Peptides were prepared by varying the copy number of NLS, located following the 10 leucine amino acid sequences, to 2, 3, or 4, and specific sequences thereof are shown in Table 2 below (Peptides 1, 12, and 13). For each peptide, the change in GFP expression depending on the copy number of NLS was confirmed by immunoblotting (FIG. 3).
Accordingly, the copy number of NLS was set to 2, and a peptide (L10-2×NLS) in which the NLS amino acid sequence was located at the C-terminus, following leucine, and a peptide (2×NLS-L10) in which the NLS amino acid sequence was located at the N-terminus, preceding leucine, were prepared. Each of the above peptides (Peptide 1 and 14) was mixed with pEGFP-N3 and transfected into Jurkat T cells. Then, the expression changes of GFP were compared.
L10-2×NLS at different concentrations (2, 3, 4, 5, or 6 μM) was mixed with 2 μg of pEGFP-N3 and transfected into Jurkat T cells. The expression of GFP was then confirmed by immunoblotting (FIG. 5).
Next, pEGFP-N3 at different concentrations (0, 0.25, 0.5, 1, 2, 4, 5, or 6 μg) was mixed with 4 μM of L10-2×NLS and transfected into Jurkat T cells. The expression of GFP was then confirmed by immunoblotting (FIG. 6).
First, 4 μM L10-2×NLS and 2 μg pEGFP-N3 were mixed at 4, 16, 25, 37, or 42° C. for 30 minutes and transfected into Jurkat T cells for 30 minutes. […] (FIG. 7).
Thus, the temperature was set to 37° C., and 4 μM L10-2×NLS and 2 μg pEGFP-N3 were mixed for different times (10, 20, 30, 40, 50, or 60 minutes).
Finally, in an experiment as to the buffer used for the mixing, 4 μM of L10-2×NLS and 2 μg of pEGFP-N3 were mixed with Opti-MEM, DPBS, or Serum free RPMI-1640 (SF) buffer, respectively.
L10-2×NLS (4 μM) and pEGFP-N3 (2 μg) were mixed according to the above optimized conditions and transfected into Jurkat T cells for 0.5, 1, 2, 3, 4, or 5 hours to compare the changes in GFP expression over time (FIG. 10).

Jurkat T cells [2] = experiment: Cell morphology and viability (MTT assay) after transfection; conditions: 4 μM L10-2×NLS, 2 μg pEGFP-N3, morphology after 24 hours
Experimental: L10-2×NLS (4 μM) and pEGFP-N3 (2 μg) were mixed and transfected into Jurkat T cells, and changes in cell morphology after 24 hours were observed (FIG. 14). The cell viability after transfection was analyzed using MTT assay (FIG. 15).

Jurkat T cells [3] = experiment: Fluorescein-labeled plasmid DNA delivery efficiency by FACS; conditions: after 0.5 hours; 2 μg fluorescein-labeled plasmid DNA, 4 μM L10-2×NLS
Experimental: Fluorescein-labeled plasmid DNA (Takara) (2 μg) was mixed with L10-2×NLS (4 μM) and transfected into Jurkat T cells for 0.5, 1, 2, 3, 4, or 5 hours. Then, the delivery efficiency of the plasmid DNA into Jurkat T cells was analyzed using Novocyte FACS (Agilent) (FIG. 16).

Jurkat T cells [4] = experiment: Location of fluorescein-labeled plasmid DNA by fluorescence microscope (Hoechst 33342)
Excerpt: Next, fluorescein-labeled plasmid DNA and L10-2×NLS were mixed and transfected into Jurkat T cells, followed by treatment with nucleus staining reagent Hoechst 33342 (ThermoFisher). The location of the plasmid DNA in Jurkat T cells was then confirmed using a fluorescence microscope (Leica) (FIG. 17), and the data were quantified and analyzed through graphical representation (FIG. 18).

human primary T cells = experiment: CAR plasmid DNA delivery, CAR expression by immunoblotting with FLAG antibody; conditions: 4 μM L10-2×NLS, 2 μg FLAG-tagged CAR plasmid DNA, after 24 hours
Experimental: L10-2×NLS (4 μM) and FLAG-tagged CAR plasmid DNA (2 μg) were mixed and transfected into human primary T cells. After 24 hours, CAR expression in the human primary CD8+ T cells was confirmed by immunoblotting using FLAG antibody (FIG. 19).

Jurkat T cells [5] = experiment: FITC-labeled IgG antibody delivery efficiency by FACS; conditions: L10-2×NLS 4 μM or higher, 1 μg FITC-labeled IgG, 2 hours
Experimental: FITC-labeled IgG (Thermofisher) (1 μg) was mixed with L10-2×NLS at different concentrations (0.5, 1, 2, 4, or 6 μM). Each mixture was treated with Jurkat T cells for 2 hours, and then the antibody delivery efficiency to cells was confirmed using Novocyte FACS (Agilent) (FIG. 21), and the presence of the corresponding antibodies in cells was observed using a fluorescence microscope (Leica) (FIG. 22).

## N′-LLLLLLLLLLPKKKRKVPKKKRKVPKKKRKV-C′ (Ac-LLLLLLLLLLPKKKRKVPKKKRKVPKKKRKV-NH2) [Peptide 12]
Jurkat T cells [1]
  GFP expression depending on copy number of NLS: maintained above a certain level

## N′-LLLLLLLLLLPKKKRKVPKKKRKVPKKKRKVPKKKRKV-C′ (Ac-LLLLLLLLLLPKKKRKVPKKKRKVPKKKRKVPKKKRKV-NH2) [Peptide 13]
Jurkat T cells [1]
  GFP expression depending on copy number of NLS: maintained above a certain level

## N′-LLLLLLLLLLLPKKKRKVPKKKRKV-C′ (Ac-LLLLLLLLLLLPKKKRKVPKKKRKV-NH2) [Peptide 11]
Jurkat T cells [1]
  plasmid DNA delivery efficiency depending on leucine length: a certain level of high efficiency was maintained

## Ac-LLLLLLLLLLPKKKRKVPKKKRKV-NH2 [L10-2×NLS]
Jurkat T cells [1]; 4 μM peptide, 2 μg pEGFP-N3, immunoblot after 24 hours
  transfection level compared to Lipofectamine: significantly higher level compared to Lipofectamine®
Jurkat T cells [1]; 4 μM peptide, 2 μg pEGFP-N3, mixed 30 min at 37° C., transfection 30 min, immunoblot after 24 hours, among Peptides 1 to 10
  GFP expression depending on hydrophobic amino acid type: highest GFP expression
Jurkat T cells [1]
  GFP expression depending on copy number of NLS: highest expression of GFP
  plasmid DNA delivery efficiency depending on leucine length: highest efficiency
Jurkat T cells [1]; L10-2×NLS compared with 2×NLS-L10
  transformation efficiency depending on N-terminal/C-terminal location of NLS: high efficiency
Jurkat T cells [1]; Opti-MEM, DPBS or Serum free RPMI-1640
  GFP expression depending on mixing buffer: transfection levels were maintained
Jurkat T cells [1]; at 2 μg pEGFP-N3 (tested 0-6 μg), 4 μM L10-2×NLS
  GFP expression efficiency depending on pEGFP-N3 amount: highest
Jurkat T cells [1]; at 4 μM (tested 2, 3, 4, 5, 6 μM), 2 μg pEGFP-N3
  GFP expression efficiency depending on L10-2×NLS concentration: highest expression efficiency of GFP
Jurkat T cells [1]; mixing at 37° C. (tested 4, 16, 25, 37, 42° C.) for 30 minutes
  GFP expression depending on mixing temperature: highest expression of GFP
Jurkat T cells [1]; mixing time 30 minutes (tested 10-60 minutes), 37° C.
  GFP expression depending on mixing time: highest expression level
Jurkat T cells [1]; transfection for 0.5 or 1 hour (tested 0.5-5 hours)
  GFP expression depending on transfection time: sufficient to deliver plasmid DNA
Jurkat T cells [2]
  cell damage or cell death after transfection: did not cause any damage or cell death
Jurkat T cells [3]
  plasmid DNA delivery efficiency: about 90%
Jurkat T cells [4]; 1 hour after transfection
  plasmid DNA delivery to cells: delivered to the majority of cells
Jurkat T cells [4]; at 4 hours
  plasmid DNA found in the nucleus, efficiency: approximately 40%
Human primary T cells
  CAR expression in human primary CD8+ T cells: confirmed
Jurkat T cells [5]
  antibody delivery efficiency: approximately 90%
